One experiment addresses T1, MAP3K1 (Homo sapiens, UniProt Q13233).
T1 construct: endogenous in cells
Briefly: Kinobeads two-dose competition binding: MAP3K1. To be noted: for CATDS: target MAP3K1. The source says: (§1) Briefly, Kinobeads comprise seven broad-spectrum small molecule kinase inhibitors immobilized on Sepharose beads. […]. Compounds of interest are set to compete for target protein binding with Kinobeads in the lysate and the amount of a given protein bound to Kinobeads in the presence of a compound can be quantified relative to a dimethylsulfoxide (DMSO) vehicle control by label-free mass spectrometry. This assay measures the physical interaction of a compound with thousands of endogenous proteins in parallel and, when systematically increasing the concentration of competitor, enables the calculation of an apparent interaction constant ( Kdapp ) for each compound and protein.
(§2) Kinobeads pulldown experiments were performed as described previously[13],[14],[17] with minor modification. […] The protein concentration was adjusted to 5 mg ml^−1. Kinase inhibitors were spiked into 0.5 ml of cell lysate at final concentrations of 100 and 1,000 nM (or DMSO, 0.3, 1, 3, 10, 30, 100, 300 and 1,000 nM for full dose experiments). […] Lysates were incubated for 45 min at 4 °C. Subsequently, lysates were incubated with Kinobeads ε (17.5 µl of settled beads) for 30 min at 4 °C. To assess the degree of protein depletion from the lysates by Kinobeads, the flow through of the DMSO control was recovered for a pulldown of pulldown experiment where the lysate was incubated a second time with fresh Kinobeads. Beads were washed in three steps with buffer containing 0.4%, 0.2% and no IGEPAL. Bound proteins were reduced with 50 mM DTT in 8 M Urea, 40 mM Tris-HCl pH 7.4 for 30 min at room temperature. After alkylation with 55 mM chloroacetamide, the urea concentration was reduced to 1–2 M and proteins were digested with trypsin. Acidified peptides were desalted and concentrated using SepPak tC18 µEluation plates (Waters). Samples were frozen, dried by vacuum centrifugation and stored at −20 °C.
(§3) Each kinase inhibitor was processed together with all DMSO controls of the same plate. Additionally, each search was supplemented with five high quality DMSO controls for consistent peptide identification and protein grouping. The resultant file (proteinGroups.txt) was used for subsequent filtering, normalization, data visualization and target annotation that was automatically performed by a data processing pipeline built in house that used R (including the ‘drc’ and ‘heatmap’ packages). First, reverse hits, potential contaminants and not quantified proteins in the DMSO control samples were discarded. Protein raw and label-free quantification intensities were normalized to the median DMSO control intensity to obtain relative residual binding intensities for each protein group at every inhibitor concentration and standard deviations of the DMSO control intensity were calculated. IC50 values were estimated based on the following equation IC50=I×100−inhibition/inhibition where [I] is the inhibitor concentration that was used for IC50 calculation and ‘inhibition’ the relative residual binding intensity. […]. Estimated Kdapp values were then calculated by multiplying the estimated IC50 values with a protein-dependent correction factor that was limited to a maximum value of one. The correction factor accounts for the depletion of a target protein from the lysate by Kinobeads. The depletion can be measured by the ratio of the amount of protein captured in two consecutive pulldowns of the same DMSO control lysate. In this study, correction factors were determined in separate experiments using the same lysate mixture and the same bead batch. Correction factors were set to the median of all correction factors. Targets of kinase inhibitors were annotated using the previously published random forest classifier. A training data set was annotated manually. […]

The next experiment has as its target T2, BMPR2 (Homo sapiens, UniProt Q13873).
T2 construct: to maximize the representation of endogenous proteins; endogenous in cells
T2 sequence (Q13873 27-1038): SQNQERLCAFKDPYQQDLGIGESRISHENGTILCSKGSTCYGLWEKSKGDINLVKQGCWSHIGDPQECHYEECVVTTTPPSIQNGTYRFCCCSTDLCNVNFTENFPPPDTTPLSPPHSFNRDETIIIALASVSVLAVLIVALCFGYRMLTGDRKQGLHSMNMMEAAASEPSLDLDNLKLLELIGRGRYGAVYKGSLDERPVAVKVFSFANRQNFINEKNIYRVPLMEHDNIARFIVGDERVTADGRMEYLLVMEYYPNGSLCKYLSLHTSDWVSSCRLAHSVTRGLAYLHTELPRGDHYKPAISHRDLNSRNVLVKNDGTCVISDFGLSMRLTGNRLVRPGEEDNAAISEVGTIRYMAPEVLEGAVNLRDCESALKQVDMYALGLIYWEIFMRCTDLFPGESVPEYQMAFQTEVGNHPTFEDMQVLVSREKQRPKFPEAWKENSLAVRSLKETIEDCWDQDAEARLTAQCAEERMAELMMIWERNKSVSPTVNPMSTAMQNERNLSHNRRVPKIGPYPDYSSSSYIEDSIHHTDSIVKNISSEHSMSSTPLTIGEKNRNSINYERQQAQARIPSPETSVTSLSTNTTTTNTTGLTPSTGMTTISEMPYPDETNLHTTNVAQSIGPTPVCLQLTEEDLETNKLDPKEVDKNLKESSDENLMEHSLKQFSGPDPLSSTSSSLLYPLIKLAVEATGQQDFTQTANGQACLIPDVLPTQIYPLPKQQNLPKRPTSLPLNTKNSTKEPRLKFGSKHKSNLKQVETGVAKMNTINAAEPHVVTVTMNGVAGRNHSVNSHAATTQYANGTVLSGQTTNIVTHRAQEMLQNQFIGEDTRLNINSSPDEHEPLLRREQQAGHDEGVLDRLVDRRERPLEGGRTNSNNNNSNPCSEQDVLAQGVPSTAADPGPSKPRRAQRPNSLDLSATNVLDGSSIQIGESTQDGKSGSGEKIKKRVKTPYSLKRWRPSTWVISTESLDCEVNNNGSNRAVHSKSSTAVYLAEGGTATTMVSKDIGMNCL
Briefly: Kinobeads two-dose competition binding: BMPR2. Conditions: for CATDS: target BMPR2.
Excerpt: as §1, §2, §3

The next experiment addresses T3, GSK3B (Homo sapiens, UniProt P49841).
T3 construct: endogenous in cells
Briefly: Kinobeads two-dose competition binding: GSK3B. Conditions: for CATDS: target GSK3B.

Read-outs that look alike come from different tables or passages of the source.

T3 sequence (P49841 whole entry): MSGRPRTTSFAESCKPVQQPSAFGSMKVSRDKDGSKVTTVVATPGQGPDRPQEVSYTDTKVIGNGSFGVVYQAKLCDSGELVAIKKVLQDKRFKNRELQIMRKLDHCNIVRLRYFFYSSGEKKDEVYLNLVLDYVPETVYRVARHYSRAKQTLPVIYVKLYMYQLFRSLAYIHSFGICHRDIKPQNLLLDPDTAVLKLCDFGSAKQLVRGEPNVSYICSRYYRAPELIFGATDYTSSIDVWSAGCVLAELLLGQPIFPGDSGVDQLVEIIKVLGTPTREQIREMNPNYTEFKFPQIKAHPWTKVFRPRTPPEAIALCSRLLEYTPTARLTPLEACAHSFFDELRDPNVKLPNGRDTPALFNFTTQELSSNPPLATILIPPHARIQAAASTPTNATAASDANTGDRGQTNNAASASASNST
T1 sequence (Q13233 whole entry): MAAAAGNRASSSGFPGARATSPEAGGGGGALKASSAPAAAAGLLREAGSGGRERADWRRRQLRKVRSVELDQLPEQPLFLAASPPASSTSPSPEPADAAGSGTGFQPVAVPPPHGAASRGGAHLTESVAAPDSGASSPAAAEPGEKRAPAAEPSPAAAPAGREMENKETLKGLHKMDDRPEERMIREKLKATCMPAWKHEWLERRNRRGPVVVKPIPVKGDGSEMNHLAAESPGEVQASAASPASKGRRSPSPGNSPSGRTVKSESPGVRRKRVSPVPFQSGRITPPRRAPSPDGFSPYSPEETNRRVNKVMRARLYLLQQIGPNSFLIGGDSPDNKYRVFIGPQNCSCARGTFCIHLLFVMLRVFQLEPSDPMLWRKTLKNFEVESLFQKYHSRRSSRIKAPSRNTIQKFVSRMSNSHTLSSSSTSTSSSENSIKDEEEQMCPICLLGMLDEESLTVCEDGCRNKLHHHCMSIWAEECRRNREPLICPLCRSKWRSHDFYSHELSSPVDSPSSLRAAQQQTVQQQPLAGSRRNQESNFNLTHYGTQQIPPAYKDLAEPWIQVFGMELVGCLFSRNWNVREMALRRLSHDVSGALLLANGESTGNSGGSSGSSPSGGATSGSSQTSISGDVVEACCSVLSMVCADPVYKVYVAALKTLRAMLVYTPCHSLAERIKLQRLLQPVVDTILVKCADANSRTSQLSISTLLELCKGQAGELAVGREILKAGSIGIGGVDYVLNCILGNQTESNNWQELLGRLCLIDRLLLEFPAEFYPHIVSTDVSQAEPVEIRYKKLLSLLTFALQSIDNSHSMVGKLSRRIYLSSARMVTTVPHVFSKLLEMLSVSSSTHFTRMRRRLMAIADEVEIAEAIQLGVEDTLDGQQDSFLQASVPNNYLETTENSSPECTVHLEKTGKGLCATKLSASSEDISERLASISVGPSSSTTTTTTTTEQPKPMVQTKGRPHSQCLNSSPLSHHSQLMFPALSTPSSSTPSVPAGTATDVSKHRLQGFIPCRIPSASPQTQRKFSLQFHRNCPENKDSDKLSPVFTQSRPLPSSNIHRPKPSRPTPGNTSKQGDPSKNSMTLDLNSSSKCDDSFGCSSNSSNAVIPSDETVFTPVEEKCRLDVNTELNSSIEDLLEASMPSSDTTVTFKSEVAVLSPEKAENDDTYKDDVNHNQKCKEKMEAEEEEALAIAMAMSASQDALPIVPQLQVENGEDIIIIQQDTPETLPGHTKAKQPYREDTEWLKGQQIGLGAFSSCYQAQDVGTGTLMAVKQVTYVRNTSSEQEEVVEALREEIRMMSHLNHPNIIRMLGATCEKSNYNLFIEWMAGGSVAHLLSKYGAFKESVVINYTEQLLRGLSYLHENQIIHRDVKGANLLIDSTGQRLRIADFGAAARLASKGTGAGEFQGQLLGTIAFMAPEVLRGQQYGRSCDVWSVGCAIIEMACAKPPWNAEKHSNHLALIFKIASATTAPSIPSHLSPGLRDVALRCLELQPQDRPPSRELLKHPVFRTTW

With `Nc1ncnc2[nH]c(-c3ccccc3)nc12` [AH5015_KCGS], the CATDS is 0 on MAP3K1, 0 at BMPR2 and 0.07826 at GSK3B.

For `CCN1CCN(Cc2ccc(Nc3ncc(F)c(-c4cc(F)c5nc(C)n(C(C)C)c5c4)n3)nc2)CC1` [Abemaciclib], the CATDS on MAP3K1 and on BMPR2 was 0 throughout.

`CN(C)C/C=C/C(=O)Nc1cc2c(Nc3ccc(F)c(Cl)c3)ncnc2cc1O[C@H]1CCOC1` [Afatinib]: the CATDS at MAP3K1, at BMPR2 and at GSK3B was 0 throughout.

Consider `CCc1cc2c(cc1N1CCC(N3CCOCC3)CC1)C(C)(C)c1[nH]c3cc(C#N)ccc3c1C2=O` [Alectinib], for which the CATDS at MAP3K1, on BMPR2 and at GSK3B was 0 in each case.

Consider `N#CC1(c2ccc(NC(=O)c3cccnc3NCc3ccncc3)cc2)CCCC1` [Apatinib], for which the CATDS at MAP3K1, on BMPR2 and on GSK3B was 0 in each case.

On to `CC(C)N1CC(=O)N(C)c2cnc(Nc3cccc(S(=O)(=O)CCN4CCOCC4)c3)nc21` [BI00009348], for which the potency estimated from few doses on MAP3K1 (Kinobeads two-dose, Drugmatrix - all 2, read-out: apparent Kd MAP3K1) was > 1000 nM; on BMPR2 (Kinobeads two-dose, Drugmatrix - all 2, read-out: apparent Kd BMPR2), 646 nM; on GSK3B (Kinobeads two-dose, Drugmatrix - all 2, read-out: apparent Kd GSK3B), 783 nM.

`C[C@]12O[C@H](C[C@]1(O)CO)n1c3ccccc3c3c4c(c5c6ccccc6n2c5c31)CNC4=O` [Lestaurtinib]: at GSK3B (read-out: Lestaurtinib Drugmatrix value, Gene Name GSK3B), the potency estimated from few doses is 295 nM.
